In US8609669B2, “Potassium channel modulators” (AbbVie Inc., priority 2010, dated 2013):

Biological target: T1, KCNQ 2/3 channels (HEK293 cells stably expressing human KCNQ2 and KCNQ3 subunits) (Homo sapiens, UniProt O43525+O43526)
T1 construct: expressed in transfected cells; host or cells: HEK293
Experiment: KCNQ2/3 channel activation, thallium flux FLIPR assay (BTC-AM dye)
Type: cell-based
Settings: for Emax: HEK293, maximum response relative to response of retigabine at 10 μM (set at 100%), read-out: Max. %; for EC50: HEK293 cells expressing human KCNQ2 and KCNQ3, FLIPR thallium flux
Procedure, shortened: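 HEK293 cells stably expressing human KCNQ2/KCNQ3 were loaded with BTC-AM and exposed to compound for 4 min in pH 7.3 gluconate buffer with ouabain. Thallium flux was triggered with 6 mM TlNO3 and 10 mM K2SO4 (stock additions) and fluorescence (ex 488, em 540 nm) recorded for 3 min. EC50 came from responses over baseline; maximal response is relative to 10 μM retigabine (100%).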

Emax	EC50	Compound
107%	0.1 to 0.5 µM	CC(C)(C)/C=C/c1c(NC(=O)Cc2ccc(F)cc2)nn2cccnc12 [Example 161, N-{3-[(1E)-3,3-dimethylbut-1-en-1-yl]pyrazolo[1,5-a]pyrimidin-2-yl}-2-(4-fluorophenyl)acetamide]
141%	< 0.1 µM	Cc1ccnc2c(Cc3ccc(F)cc3)c(NC(=O)CCC3CCCC3)nn12 [Example 71, 3-cyclopentyl-N-[3-(4-fluorobenzyl)-7-methylpyrazolo[1,5-a]pyrimidin-2-yl]propanamide]
98%	0.5 to 1 µM	O=C(CC12CC3CC(CC(C3)C1)C2)Nc1nn2cccnc2c1-c1ccc2ccccc2c1 [Example 116, 2-(adamantan-1-yl)-N-[3-(2-naphthyl)pyrazolo[1,5-a]pyrimidin-2-yl]acetamide]
99%	< 0.1 µM	O=C(CCC1CCCCC1)Nc1nn2cccnc2c1-c1ccc(Cl)cc1 [Example 157, N-[3-(4-chlorophenyl)pyrazolo[1,5-a]pyrimidin-2-yl]-3-cyclohexylpropanamide]
73%	1 to 10 µM	Cc1cnc2c(-c3ccc(Cl)c(C)c3)c(NC(=O)CCc3ccccc3)nn2c1 [Example 44, N-[3-(4-chloro-3-methylphenyl)-6-methylpyrazolo[1,5-a]pyrimidin-2-yl]-3-phenylpropanamide]
73%	1 to 10 µM	Cc1cnc2c(-c3cccc(Cl)c3)c(NC(=O)CC(C)(C)C)nn2c1 [Example 51, N-[3-(3-chlorophenyl)-6-methylpyrazolo[1,5-a]pyrimidin-2-yl]-3,3-dimethylbutanamide]
166%	0.1 to 0.5 µM	Cc1cc(C)n2nc(NC(=O)CCc3ccccc3)c(-c3ccc(F)cc3)c2n1 [Example 29, N-[3-(4-fluorophenyl)-5,7-dimethylpyrazolo[1,5-a]pyrimidin-2-yl]-3-phenylpropanamide]
139%	1 to 10 µM	Cc1ccnc2c(-c3ccc(Cl)cc3)c(NC(=O)CC(C)(C)C)nn12 [Example 40, N-[3-(4-chlorophenyl)-7-methylpyrazolo[1,5-a]pyrimidin-2-yl]-3,3-dimethylbutanamide]
164%	1 to 10 µM	Cc1cnc2c(-c3ccccc3)c(NC(=O)CC(C)(C)C)nn2c1 [Example 92, 3,3-dimethyl-N-(6-methyl-3-phenylpyrazolo[1,5-a]pyrimidin-2-yl)butanamide]
8%	> 10 µM	O=C(Cc1cccnc1)Nc1nn2cccnc2c1-c1ccc(Cl)cc1 [Example 101, N-[3-(4-chlorophenyl)pyrazolo[1,5-a]pyrimidin-2-yl]-2-(pyridin-3-yl)acetamide]
130%	0.1 to 0.5 µM	O=C(CC1CC2CCC1C2)Nc1nn2cccnc2c1-c1ccc(OC(F)(F)F)cc1 (racemic) [Example 124, (±)-exo-2-bicyclo[2.2.1]hept-2-yl-N-{3-[4-(trifluoromethoxy)phenyl]pyrazolo[1,5-a]pyrimidin-2-yl}acetamide]
166%	< 0.1 µM	Cc1ccnc2c(CC(C)(C)C)c(NC(=O)CCC3CCCCC3)nn12 [Example 37, 3-cyclohexyl-N-[3-(2,2-dimethylpropyl)-7-methylpyrazolo[1,5-a]pyrimidin-2-yl]propanamide]

Second part, the compound before the results:

Compound	Emax	EC50
COc1ccc(CC(=O)Nc2nn3c(C)ccnc3c2CC(C)(C)C)cc1 [Example 36, N-[3-(2,2-dimethylpropyl)-7-methylpyrazolo[1,5-a]pyrimidin-2-yl]-2-(4-methoxyphenyl)acetamide]	160%	> 10 µM
COc1ccc(CC(=O)Nc2nn3cc(C)cnc3c2CC(C)(C)C)cc1 [Example 18, N-[3-(2,2-dimethylpropyl)-6-methylpyrazolo[1,5-a]pyrimidin-2-yl]-2-(4-methoxyphenyl)acetamide]	156%	1 to 10 µM
Cc1cnc2c(C(C)(C)C)c(NC(=O)CCC3CCCC3)nn2c1 [Example 179, N-(3-tert-butyl-6-methylpyrazolo[1,5-a]pyrimidin-2-yl)-3-cyclopentylpropanamide]	151%	< 0.1 µM
CCC1(c2c(NC(=O)CC3CC4CCC3C4)nn3cccnc23)CCCCC1 (racemic) [Example 146, (±)-exo-2-bicyclo[2.2.1]hept-2-yl-N-[3-(1-ethylcyclohexyl)pyrazolo[1,5-a]pyrimidin-2-yl]acetamide]	151%	0.5 to 1 µM
Cc1ccnc2c(-c3cccc(C(F)(F)F)c3)c(NC(=O)CCC3CCCCC3)nn12 [Example 65, 3-cyclohexyl-N-{7-methyl-3-[3-(trifluoromethyl)phenyl]pyrazolo[1,5-a]pyrimidin-2-yl}propanamide]	56%	0.1 to 0.5 µM
CC(C)(C)c1c(NC(=O)Cc2cc(F)cc(F)c2)nn2cccnc12 [Example 127, N-(3-tert-butylpyrazolo[1,5-a]pyrimidin-2-yl)-2-(3,5-difluorophenyl)acetamide]	147%	0.1 to 0.5 µM
O=C(Cc1ccncc1)Nc1nn2cccnc2c1-c1ccc(Cl)cc1 [Example 102, N-[3-(4-chlorophenyl)pyrazolo[1,5-a]pyrimidin-2-yl]-2-(pyridin-4-yl)acetamide]	23%	> 10 µM
O=C(CCC1CCCCC1)Nc1nn2cccnc2c1-c1ccc(F)cc1 [Example 24, 3-cyclohexyl-N-[3-(4-fluorophenyl)pyrazolo[1,5-a]pyrimidin-2-yl]propanamide]	137%	0.1 to 0.5 µM
Cc1cc(C)n2nc(NC(=O)CCC3CCCCC3)c(CC(C)(C)C)c2n1 [Example 14, 3-cyclohexyl-N-[3-(2,2-dimethylpropyl)-5,7-dimethylpyrazolo[1,5-a]pyrimidin-2-yl]propanamide]	182%	< 0.1 µM
COc1cccc(CC(=O)Nc2nn3c(C)cc(C)nc3c2-c2ccc(F)c(C)c2)c1 [Example 32, N-[3-(4-fluoro-3-methylphenyl)-5,7-dimethylpyrazolo[1,5-a]pyrimidin-2-yl]-2-(3-methoxyphenyl)acetamide]	173%	0.1 to 0.5 µM
Cc1cc(C)n2nc(NC(=O)CCC3CCCC3)c(-c3ccc(Cl)cc3)c2n1 [Example 43, N-[3-(4-chlorophenyl)-5,7-dimethylpyrazolo[1,5-a]pyrimidin-2-yl]-3-cyclopentylpropanamide]	157%	< 0.1 µM
Cc1cnc2c(-c3ccc(F)c(C)c3)c(NC(=O)CC(C)(C)c3ccccc3)nn2c1 [Example 149, N-[3-(4-fluoro-3-methylphenyl)-6-methylpyrazolo[1,5-a]pyrimidin-2-yl]-3-methyl-3-phenylbutanamide]	127%	0.5 to 1 µM
CC(C)(CC(=O)Nc1nn2cccnc2c1-c1ccc(Cl)cc1)c1ccccc1 [Example 117, N-[3-(4-chlorophenyl)pyrazolo[1,5-a]pyrimidin-2-yl]-3-methyl-3-phenylbutanamide]	64%	> 10 µM
CC(C)(C)c1c(NC(=O)/C=C/c2ccccc2)nn2cccnc12 [Example 136, (2E)-N-(3-tert-butylpyrazolo[1,5-a]pyrimidin-2-yl)-3-phenylacrylamide]	8%	> 10 µM
O=C(Cc1ccccn1)Nc1nn2cccnc2c1-c1ccc(Cl)cc1 [Example 100, N-[3-(4-chlorophenyl)pyrazolo[1,5-a]pyrimidin-2-yl]-2-(pyridin-2-yl)acetamide]	-1%	> 10 µM
Cc1cnc2c(-c3cccc(OC(F)(F)F)c3)c(NC(=O)CC(C)(C)C)nn2c1 [Example 3, 3,3-dimethyl-N-{6-methyl-3-[3-(trifluoromethoxy)phenyl]pyrazolo[1,5-a]pyrimidin-2-yl}butanamide]	141%	0.1 to 0.5 µM
CC(C)(C)c1c(NC(=O)CC2CC3CCC2C3)nn2cccnc12 (racemic) [Example 121, (±)-exo-2-bicyclo[2.2.1]hept-2-yl-N-(3-tert-butylpyrazolo[1,5-a]pyrimidin-2-yl)acetamide]	150%	< 0.1 µM
CC(C)c1c(NC(=O)CCC2CCCC2)nn2cccnc12 [Example 112, 3-cyclopentyl-N-(3-isopropylpyrazolo[1,5-a]pyrimidin-2-yl)propanamide]	135%	0.5 to 1 µM
Cc1cc(C)n2nc(NC(=O)CCC3CCCC3)c(C(C)C)c2n1 [Example 122, 3-cyclopentyl-N-(3-isopropyl-5,7-dimethylpyrazolo[1,5-a]pyrimidin-2-yl)propanamide]	155%	< 0.1 µM
Cc1cnc2c(-c3cccc(C(F)(F)F)c3)c(NC(=O)CC(C)(C)C)nn2c1 [Example 63, 3,3-dimethyl-N-{6-methyl-3-[3-(trifluoromethyl)phenyl]pyrazolo[1,5-a]pyrimidin-2-yl}butanamide]	125%	0.1 to 0.5 µM
Cc1cnc2c(C(C)(C)C)c(NC(=O)CC3CCCCC3)nn2c1 [Example 180, N-(3-tert-butyl-6-methylpyrazolo[1,5-a]pyrimidin-2-yl)-2-cyclohexylacetamide]	155%	0.1 to 0.5 µM
Cc1cc(C)n2nc(NC(=O)CCc3ccccc3)c(-c3cccc(F)c3)c2n1 [Example 85, N-[3-(3-fluorophenyl)-5,7-dimethylpyrazolo[1,5-a]pyrimidin-2-yl]-3-phenylpropanamide]	131%	0.5 to 1 µM
C/C=C/c1c(NC(=O)CC(C)(C)C)nn2cccnc12 [Example 167, 3,3-dimethyl-N-{3-[(1E)-prop-1-en-1-yl]pyrazolo[1,5-a]pyrimidin-2-yl}butanamide]	98%	1 to 10 µM
Cc1cnc2c(-c3ccc(F)c(C)c3)c(NC(=O)CSC3CCCC3)nn2c1 [Example 143, 2-(cyclopentylthio)-N-[3-(4-fluoro-3-methylphenyl)-6-methylpyrazolo[1,5-a]pyrimidin-2-yl]acetamide]	162%	0.1 to 0.5 µM
